In PMC9065678, “BI 1015550 is a PDE4B Inhibitor and a Clinical Drug Candidate for the Oral Treatment of Idiopathic Pulmonary Fibrosis” (Frontiers in Pharmacology, 2022):
Marks after values point to notes of the source that are not given here.

Tests used:
[1] = test system: PDE6; assay: PDE6 inhibition screen at Eurofins Cerep; type: biochemical, bovine; details: screened at Eurofins Cerep
[2] = target: T1, PDE3A (Homo sapiens, UniProt Q14432); assay: Recombinant PDE activity, scintillation proximity assay: PDE3A; type: biochemical; details: calculated IC50
T1 construct: made in house; host or cells: SF9 insect cells (baculovirus, Bac-To-Bac, pFastbac)
Description: For the preparation of human recombinant PDEs of interest, the Bac-To-Bac baculoviral expression system from Invitrogen (Carlsbad, CA, United States) was used according to the instruction manual. In short, the full-length open reading frames of PDE1C (National Center for Biotechnology Information Gene-Ref-Seq identifier NG_051183), PDE3A (NG_030033), PDE4A (NG_029594, AA 156–886), PDE4C (NG_029629), PDE7A (NG_029614), and PDE9A (NG_047067) were cloned into the plasmid vector pFastbac. For PDE4B and PDE4D, active site fragments were used (PDE4B NG_029038: AA 152–484, PDE4D NG_027957, AA 79–438). The plasmids were transformed into DH10Bac bacteria, SF9 insect cells were transfected with the bacmid DNA, and the resulting baculoviruses were stored and used for further rounds of infections. […] The protein content was measured and an equal volume of 87% (v/v) glycerol was added prior to freezing at −20°C. […] The reaction was stopped by addition of 50 µL of yttrium silicate scintillation proximity assay beads (17.8 mg/mL, 18 mM zinc sulfate in H2O) and the amount of produced [^3H]AMP/[^3H]GMP associated was determined using a Wallac Microbeta scintillation counter. […]

[3] = test system: silica-induced lung fibrosis; assay: Silica-induced lung inflammation and fibrosis in the mouse; type: in vivo; details: mice
Experimental: BI 1015550 was given at doses of 0.25, 0.75, and 2.5 mg/kg b.i.d. in Natrosol 0.5% (10 mL/kg) starting from day 10 after silica instillation until day 30 (therapeutic regimen). 8-week-old BL6 mice (mixed sex, Janvier Labs, Le Genest-Saint-Isle, France) were used. Details of the experimental methods are described elsewhere ([Lo Re et al., 2010]). Briefly, mice received silica particles at 2.5 mg/mouse by intranasal instillation. Control mice received the respective saline solution by intranasal instillation. Mice were killed 30 days after silica administration and macroscopic changes were recorded at post-mortem analysis. Lung weight was measured, BALF for total cell and differential cell counts as well as myeloperoxidase (MPO) activity and keratinocyte-derived cytokine (KC, the counterpart of human GRO protein) determination was generated, and lung histology (staining with HE and chromotrope-aniline blue with semi-quantitative analysis for the estimation of inflammation, granuloma, and fibrosis scores was done.

[4] = target: T2, PDE5 (Homo sapiens, UniProt O76074); assay: PDE5 inhibition screen at Eurofins Cerep; type: biochemical; details: screened at Eurofins Cerep
T2 construct: Eurofins Cerep

[5] = target: T3, PDE4A (Homo sapiens, UniProt P27815); assay: Recombinant PDE activity, scintillation proximity assay: PDE4A; type: biochemical; details: substrate [3H]cAMP, means from n independent experiments
T3 construct: PDE4A (NG_029594, AA 156–886); made in house; host or cells: SF9 insect cells (baculovirus, Bac-To-Bac, pFastbac)
Experimental: For the preparation of human recombinant PDEs of interest, the Bac-To-Bac baculoviral expression system from Invitrogen (Carlsbad, CA, United States) was used according to the instruction manual. […] The plasmids were transformed into DH10Bac bacteria, SF9 insect cells were transfected with the bacmid DNA, and the resulting baculoviruses were stored and used for further rounds of infections. For protein production, SF9 cells were infected until a cytopathic effect was visible (after about 72 h), the SF9 cells were harvested and broken up by 3 freeze/thaw cycles, and by shearing 10 times through a 0.1 mm cannula using a syringe. […] The Phosphodiesterase Scintillation Proximity Assays (TRKQ7090 for [^3H]cAMP, GE Healthcare Europe GmbH, Chalfont St Giles, United Kingdom, and TRKQ7100 for [^3H]cGMP, Perkin Elmer, Waltham, MA, United States) were performed essentially according to the instruction manual. […] Assay solutions containing recombinant baculoviral-expressed PDE (to give an activity of 5.000–20.000 cpm corresponding to 5–20% of total activity added), 50 mmol/L Tris/HCl pH 7.5, 8.3 mmol/L MgCl2, 1.7 mmol/L EGTA, and 10 µL radiolabeled substrate (0.05 µCi in H2O) were incubated for 1 h at 30°C (final volume 100 μL).

[6] = Plasma protein binding; type: in vitro ADME
[7] = 0.25 mg/kg b.i.d. oral day 10–30
[8] = 0.75 mg/kg b.i.d. oral day 10–30
[9] = 2.5 mg/kg b.i.d. oral day 10–30

T3 sequence (P27815 156-886): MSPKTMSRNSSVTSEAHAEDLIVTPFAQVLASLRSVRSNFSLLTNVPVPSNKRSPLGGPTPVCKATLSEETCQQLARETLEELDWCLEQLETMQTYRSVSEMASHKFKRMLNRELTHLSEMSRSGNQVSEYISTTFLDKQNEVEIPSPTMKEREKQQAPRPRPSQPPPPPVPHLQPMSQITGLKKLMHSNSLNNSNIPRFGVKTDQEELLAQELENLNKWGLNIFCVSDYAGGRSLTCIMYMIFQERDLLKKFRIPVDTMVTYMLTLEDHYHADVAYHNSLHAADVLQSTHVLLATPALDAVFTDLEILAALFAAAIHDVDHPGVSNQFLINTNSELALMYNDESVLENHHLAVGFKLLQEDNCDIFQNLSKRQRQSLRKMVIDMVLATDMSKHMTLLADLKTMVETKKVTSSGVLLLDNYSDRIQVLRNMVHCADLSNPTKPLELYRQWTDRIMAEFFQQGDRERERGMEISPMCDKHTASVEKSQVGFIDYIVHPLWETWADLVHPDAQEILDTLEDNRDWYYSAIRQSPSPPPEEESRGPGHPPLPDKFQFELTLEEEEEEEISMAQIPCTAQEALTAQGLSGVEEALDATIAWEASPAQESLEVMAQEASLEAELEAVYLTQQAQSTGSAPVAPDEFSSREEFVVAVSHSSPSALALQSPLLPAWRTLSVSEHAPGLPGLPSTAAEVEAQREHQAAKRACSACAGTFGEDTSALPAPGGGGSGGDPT
T1 sequence (Q14432 whole entry): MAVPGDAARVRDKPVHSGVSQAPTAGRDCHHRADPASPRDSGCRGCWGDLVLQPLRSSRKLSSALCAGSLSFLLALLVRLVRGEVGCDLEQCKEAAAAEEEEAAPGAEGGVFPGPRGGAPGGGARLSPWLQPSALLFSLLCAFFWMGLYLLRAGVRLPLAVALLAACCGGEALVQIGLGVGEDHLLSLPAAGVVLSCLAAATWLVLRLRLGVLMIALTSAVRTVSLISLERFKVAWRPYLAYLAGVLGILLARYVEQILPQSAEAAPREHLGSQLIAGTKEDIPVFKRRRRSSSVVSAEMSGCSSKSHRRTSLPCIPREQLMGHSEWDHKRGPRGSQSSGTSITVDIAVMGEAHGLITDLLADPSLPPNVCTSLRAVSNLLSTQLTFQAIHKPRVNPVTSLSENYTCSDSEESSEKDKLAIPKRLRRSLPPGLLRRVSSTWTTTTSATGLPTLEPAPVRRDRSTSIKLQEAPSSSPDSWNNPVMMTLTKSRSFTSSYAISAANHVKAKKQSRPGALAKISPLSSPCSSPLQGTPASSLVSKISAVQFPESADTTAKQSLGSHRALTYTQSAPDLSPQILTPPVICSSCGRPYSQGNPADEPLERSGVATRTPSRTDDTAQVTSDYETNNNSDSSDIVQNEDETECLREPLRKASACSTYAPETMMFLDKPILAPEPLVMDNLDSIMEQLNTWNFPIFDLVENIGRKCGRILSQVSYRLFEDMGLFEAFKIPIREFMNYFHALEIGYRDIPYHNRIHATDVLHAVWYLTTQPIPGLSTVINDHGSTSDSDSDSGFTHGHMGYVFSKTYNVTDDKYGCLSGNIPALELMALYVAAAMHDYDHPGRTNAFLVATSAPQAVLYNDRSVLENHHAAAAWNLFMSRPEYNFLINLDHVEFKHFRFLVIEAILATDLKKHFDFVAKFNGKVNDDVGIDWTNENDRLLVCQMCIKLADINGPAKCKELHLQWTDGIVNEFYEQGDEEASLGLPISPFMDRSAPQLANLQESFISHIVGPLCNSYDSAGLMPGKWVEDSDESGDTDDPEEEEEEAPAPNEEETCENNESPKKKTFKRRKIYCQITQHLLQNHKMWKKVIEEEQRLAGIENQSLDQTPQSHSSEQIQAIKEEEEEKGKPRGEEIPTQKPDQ

## [O-][S+]1CCc2nc(N3CCC(c4ncc(Cl)cn4)CC3)nc(NC3(CO)CCC3)c21 (centres unmarked) [BI 1015550]
[1]
  Inhibition of bovine PDE6: did not inhibit
[2]
  IC50: 120 µM
[3]; [7]
  Fibrosis score, % change related to control animals: 5%
  Granuloma score, % change related to control animals: –16%
  Inflammation score, % change related to control animals: –4%
  KC in BALF, % change related to control animals: 4%
  Lung weight, % change related to control animals: –57%
  Lymphocytes in BALF, % change related to control animals: –18%
  MPO in BALF, % change related to control animals: –2%
  Macrophages in BALF, % change related to control animals: –29%
  Neutrophils in BALF, % change related to control animals: –35%
  Total cells in BALF, % change related to control animals: –27%
[3]; [8]
  Fibrosis score, % change related to control animals: –10%
  Granuloma score, % change related to control animals: –11%
  Inflammation score, % change related to control animals: 4%
  KC in BALF, % change related to control animals: –39%
  Lung weight, % change related to control animals: –46%
  Lymphocytes in BALF, % change related to control animals: 49%
  MPO in BALF, % change related to control animals: –22%
  Macrophages in BALF, % change related to control animals: –11%
  Neutrophils in BALF, % change related to control animals: 8%
  Total cells in BALF, % change related to control animals: –13%
[3]; [9]
  Fibrosis score, % change related to control animals: –15%
  Granuloma score, % change related to control animals: –32%
  Inflammation score, % change related to control animals: –19%
  KC in BALF, % change related to control animals: –27%
  Lung weight, % change related to control animals: –46%
  Lymphocytes in BALF, % change related to control animals: –12%
  MPO in BALF, % change related to control animals: –34%
  Macrophages in BALF, % change related to control animals: –38* %
  Neutrophils in BALF, % change related to control animals: –46* %
  Total cells in BALF, % change related to control animals: –28%
[4]
  Inhibition of human PDE5: did not inhibit
[5]
  IC50: 0.248 µM
[6]
  Plasma protein binding: 77%
